This is an account of results in PubChem BioAssay (NCI).

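Briefly, cells in 96-well plates were exposed to five compound concentrations for 48 h, and endpoints were estimated by linear interpolation. Definition used: TGI = concentration required for complete inhibition of growth.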

Common to all, as to experiment: DTP human tumour cell line panel, 48 h
In assay [1] the test system is MOLT-4 leukemia.
In assay [2] the test system is RXF 393 renal.
Assay [3] concerns SNB-19 CNS.
Assay [4] deals with MCF7 breast.
The subject of assay [5] is SF-539 CNS.
In assay [6] the test system is MDA-N.
The subject of assay [7] is U251 CNS.
Assay [8] relates to M14 melanoma.
For assay [9], the system named is RPMI-8226 leukemia.
In assay [10] the test system is T-47D breast.

In general, TGI refers to the concentration giving total growth inhibition. As for `Cc1ccc([N+](=O)[O-])cc1NC(=O)C(=O)C1CCC2=C(Sc3ccccc3N2)C1=O` (stereo unspecified), the total growth inhibition concentration (TGI) in assay [1], in [2], in assay [3], in assay [4], in assay [5] and in [6] was > 100 µM each time. In addition, the total growth inhibition concentration (TGI) in assay [7] and in [8] was > 100 µM in each case.

As for `CC(C)c1nccn1Cc1ccc(Cl)cc1Cl`, the total growth inhibition concentration (TGI) is > 100 µM in assay [3]; > 100 µM in [4]; > 100 µM in assay [5]; > 100 µM in assay [6]; 57.8 µM in [9]; > 100 µM in assay [7]. In addition, the total growth inhibition concentration (TGI) in assay [8] is > 100 µM.

With `c1ccc(-c2[nH]c(-c3ccccc3)c(-c3cnccn3)c2-c2cnccn2)cc1`, the concentration for total growth inhibition (TGI) in [1], in assay [2], in [3], in assay [5], in assay [9] and in assay [7] was > 100 µM in each case. Also, the TGI in assay [8] was > 100 µM.

Turning to `CC1(C)CC(=O)C(=CN2C(=O)CNC2=S)C(=O)C1`, the TGI in [1], in assay [2], in assay [3], in assay [4], in [5] and in assay [6] was > 100 µM each time. Moreover, the total growth inhibition concentration (TGI) in assay [7] and in assay [8] was > 100 µM each time.

Consider `COc1ccc(NS(=O)c2cccc(C)c2)cc1` (stereo unspecified), for which the TGI is > 100 µM in assay [1]; > 100 µM in [2]; > 100 µM in assay [3]; > 100 µM in assay [4]; 66.7 µM in assay [5]; > 100 µM in assay [6]. Besides, the total growth inhibition concentration (TGI) in assay [9], in assay [7] and in assay [8] was > 100 µM in each case.

In the case of `O=C(/C=C/c1ccccc1)CCc1c(O)c2ccccc2oc1=O`, the total growth inhibition concentration (TGI) in assay [1], in [3], in assay [4], in assay [5], in [6] and in assay [9] was > 100 µM throughout. Moreover, the total growth inhibition concentration (TGI) in assay [7], in assay [8] and in [10] was > 100 µM throughout.

Turning to `CCOC(=O)c1cn(C)nc1N/C(C)=C\C(=O)c1ccccc1`, the TGI in assay [1], in [3], in assay [4], in assay [5], in [7] and in [8] was > 100 µM in each case. For the same compound, the TGI in assay [10] is > 100 µM.

As to `O=C1OC2C=CC1C1(CCOC1=O)C2` (stereo unspecified), the concentration for total growth inhibition (TGI) in assay [1], in assay [3], in [5], in assay [9], in assay [7] and in [8] was > 100 µM each time.

In the case of `CC(=O)O[C@H]1C(=O)[C@@]2(C)C(C(OC(=O)c3ccccc3)[C@]3(O)CC(OC(=O)C(O)C(NC(=O)c4ccccc4)c4ccc(C)cc4)C(C)=C1C3(C)C)[C@]1(OC(C)=O)CO[C@@H]1C[C@@H]2O` (stereo partly specified), the concentration for total growth inhibition (TGI) in [1] is 5.82 µM; in assay [2] it was 0.13 µM; in assay [3], 0.523 µM; in [5] it was 0.0652 µM; in assay [9], 7.56 µM; in [7], 0.264 µM. The total growth inhibition concentration (TGI) in assay [8] worked out at 0.105 µM.

Take `CCCCCCCCCCCCCCCCNc1ccn(C2CC(OP(=O)(O)OCC3OC(n4cc(CC)c(=O)[nH]c4=O)CC3O)C(CO)O2)c(=O)n1` (stereo unspecified): the total growth inhibition concentration (TGI) in assay [1] is 41.3 µM; in [2] it was 46.4 µM; in assay [3], 31.7 µM; in [4], > 100 µM; in assay [5], 34.4 µM; in assay [9], 38.8 µM. Further, the TGI in assay [7] is 89.3 µM; in [8], 33.2 µM; in assay [10] it was > 100 µM.

In the case of `Cc1cc(C)c2c(c1)CC1(Cc3c(C)cc(C)cc3C1=O)C2=O` (stereo unspecified), the TGI in [1], in assay [2], in assay [3], in assay [4], in assay [5] and in assay [6] was > 100 µM throughout. Besides, the concentration for total growth inhibition (TGI) in assay [9], in [7] and in assay [8] was > 100 µM each time.

Take `CC(C)CC(NC(=O)C(COc1ccc([N+](=O)[O-])cc1)Cc1ccccc1)C(=O)Nc1ccccc1` (stereo unspecified): the TGI in assay [1] was > 100 µM; in assay [2], 41.6 µM; in [3] it was 20.2 µM; in assay [4] it was > 100 µM; in assay [5], 18.9 µM; in [6], > 100 µM. Besides, the TGI was > 100 µM in [9], 28.7 µM in [7] and 60.8 µM in assay [8].

As to `CC(=O)Nc1ccc(/C=C(\NC(=O)c2ccccc2)C(=O)NNS(=O)(=O)c2ccc(C)cc2)cc1`, the concentration for total growth inhibition (TGI) in assay [1] is > 100 µM; in [2], > 100 µM; in [3], > 100 µM; in assay [5], > 100 µM; in assay [9], 49 µM; in [7], > 100 µM. Also, the TGI in assay [8] was > 100 µM.

As to `COc1ccc(N2C(=O)/C(=C/c3ccc(N(CCC#N)CCC#N)cc3)N=C2c2ccccc2)c(OC)c1`, the TGI in assay [1], in assay [3], in assay [4], in assay [5], in assay [6] and in assay [9] was > 100 µM in each case. The concentration for total growth inhibition (TGI) was > 100 µM in assay [7], > 100 µM in [8] and 69.5 µM in assay [10].

In the case of `COc1cccc2c1[C@]1(O)C(O)CCCC21` (stereo partly specified), the TGI in assay [1], in [2], in [3], in [5], in [9] and in [7] was > 100 µM throughout. In addition, in [8], the TGI is > 100 µM.

Take `N#Cc1c(-c2ccc(Cl)cc2)cc(-c2nc3ccccc3[nH]2)nc1N`: the TGI in [1] stood at 26.8 µM; in assay [3] it was 27.5 µM; in [4] it was 20.1 µM; in assay [5] it was 31.7 µM; in [6], 23.7 µM; in [9], 47.1 µM. Besides, the TGI in assay [8] was found to be 16.2 µM; in assay [10] it was 19.4 µM.
